We go through 23 compounds from the RepoRT retention time repository (doi:10.1021/acs.analchem.1c00972).

A short description of data set [1]: RP, Waters ACQUITY UPLC BEH C18, 100 × 1 mm, 1.7 µm, 50 °C, 0.3 mL/min, estimated dead time 0.17 min; A: water + 10 mM ammonium bicarbonate; B: 10% water + 90% methanol + 10 mM ammonium bicarbonate; gradient (min/%B) 0/0 15/100 21/100 22/0 30/0. As to conditions: stereoisomer not certain.
Data set [2] in a line: RP, Waters ACQUITY UPLC BEH C18, 100 × 1 mm, 1.7 µm, 50 °C, 0.3 mL/min, estimated dead time 0.17 min; A: water + 0.1% formic acid + 20 mM ammonium formate; B: methanol + 0.1% formic acid + 20 mM ammonium formate; gradient (min/%B) 0/0 15/100 21/100 22/0 30/0. The note with it: stereoisomer not certain.

Regarding `Cc1onc(-c2ccccc2)c1C(=O)NC1C(=O)N2C1SC(C)(C)C2C(=O)O` (stereo unspecified) [Oxacillin], the LC retention time in data set [1] was 11.6 min; in data set [2] it was 12.7 min.
For `CN1CCN(C2=Nc3cc(Cl)ccc3Nc3ccccc32)CC1` [Clozapine] the same measures were 15.7 min and 11.7 min.
With `O=C(Cc1ccccc1)NC(=NOCC1CC1)c1c(C(F)(F)F)ccc(F)c1F` [Cyflufenamid], the LC retention time in data set [1] was 16.3 min; in data set [2], 16 min.
On to `CC1CCC2(NC1)OC1CC3C4CC=C5CC(O)CCC5(C)C4CCC3(C)C1C2C` (stereo unspecified) [Solasodin], for which the LC retention time in data set [1] was 18 min; in data set [2], 14.3 min.
Regarding `Cc1ccc(OP(=O)(Oc2ccc(C)cc2)Oc2ccc(C)cc2)cc1` [Tricresylphosphate], the values for the LC retention time in data set [1] and in data set [2] were 17.7 min and 17.3 min, respectively.
Turning to `CCCCCCCCCC(=O)N(C)C` [N,N-Dimethyldecan-1-amide], the LC retention time was 16.5 min in data set [1] and 16.1 min in data set [2].
In the same order, the values of `Cc1cc(C)c2ccccc2n1` [2,4-Dimethylchinolin] are 13.6 min and 7.37 min.
For `O=Cc1ccccc1Nc1ccccc1Cl` [2-(2-(Chlorophenyl)amino)benzaldehyde] the same measures were 16 min and 15.7 min.
For `CC(=O)C1(O)CCC2C3CCC4=CC(=O)CCC4(C)C3CCC21C` (stereo not drawn) [17alpha-Hydroxyprogesterone] the same measures were 14.8 min and 14.5 min.
`c1ccc2n[nH]nc2c1` [1H-Benzotriazole]: the values for the LC retention time in data set [1] and in data set [2] were 6.66 min and 7.88 min, respectively.
For `CCOc1ccc(C(C)(C)COCc2cccc(Oc3ccccc3)c2)cc1` [Etofenprox] the same measures were 14.1 min and 13.8 min.
In the same order, the values of `CC(C)C(N)C(=O)OCC(CO)OCn1cnc2c(=O)[nH]c(N)nc21` (stereo unspecified) [Valganciclovir] are 7.16 min and 5.17 min.
In the same order, the values of `O=C(O)c1ccc(Cl)cc1Cl` [2,4-Dichlorobenzoic acid] are 7.64 min and 12.7 min.
Consider `S=c1[nH]c2ccccc2s1` [2-Mercaptobenzothiazole], for which the LC retention time in data set [1] is 8.11 min; in data set [2], 11 min.
On to `O=S(=O)(c1ccc(Cl)cc1)c1ccc(Cl)cc1` [Bis(4-chlorophenyl)sulfone], for which the LC retention time in data set [1] was 12 min; in data set [2], 14.9 min.
For `CNC(=O)Oc1cc(C)c(N(C)C)c(C)c1` [Mexacarbate] the same measures were 14.8 min and 8.62 min.
For `[NH3+][C@@H](Cc1cc(I)c(Oc2cc(I)c(O)c(I)c2)c(I)c1)C(=O)[O-]` [L-thyroxine] the same measures were 12.9 min and 14.1 min.
As for `Cc1cc(=O)n(-c2ccccc2)n1C` [Phenazone], the LC retention time in data set [1] is 8.96 min; in data set [2], 8.9 min.
Regarding `COc1nc(C)nc(NC(=O)NS(=O)(=O)c2ccccc2Cl)n1` [Chlorsulfuron], the figures for the LC retention time in data set [1] and in data set [2] were 9.11 min and 12.3 min, respectively.
For `Nc1ncnc2nc[nH]c12` [Adenine], the LC retention time in data set [1] is 2.55 min; in data set [2] it was 5.28 min.
For `O=NN1CCOCC1` [N-Nitrosomorpholine] the same measures were 3.78 min and 3.69 min.
In the same order, the values of `CC1(C)OC2CC3C4CC(F)C5=CC(=O)C=CC5(C)C4C(O)CC3(C)C2(C(=O)CO)O1` (stereo unspecified) [Flunisolide] are 13.8 min and 13.6 min.
With `CC12CCC3C(CCC4C(O)C(=O)C=CC43C)C1CCC2=O` (stereo unspecified) [4- Hydroxyandrostenedione], the LC retention time is 11.9 min in data set [1] and 11.7 min in data set [2].
